# In patent US20240132464A1, “HETEROCYCLIC COMPOUNDS AS E3 LIGASE INHIBITORS” (Accutar Biotechnology Inc., priority 2022, published 2024):
# Molecular target: T1, GID4 (Uniprot ID: Q81VV7, residues 124-289) (Homo sapiens, UniProt Q8IVV7)
# T1 construct: GID4 (Uniprot ID: Q81VV7, residues 124-289)
# T1 sequence (Q8IVV7 124-289): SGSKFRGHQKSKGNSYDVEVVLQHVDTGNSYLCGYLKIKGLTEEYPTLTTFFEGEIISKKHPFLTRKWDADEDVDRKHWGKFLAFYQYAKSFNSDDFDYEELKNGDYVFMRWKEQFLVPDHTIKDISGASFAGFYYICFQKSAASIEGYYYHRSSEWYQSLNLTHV
# Assay: GID4 competitive binding assay (AlphaScreen, GID4/degron peptide PGLW)
# Conditions: 24 nM GID4, 48 nM biotinylated degron peptide PGLW, 4° C., read-out: IC50 (Inhibition of GID4/Degron binding by test compounds)
# Experimental: GID4 Competitive Binding Assay
# GID4 binding affinity of compounds disclosed herein was measured by monitoring the interaction of GID4 with its degron peptide (PGLW) in the presence of the test compounds. A truncated version of GID4 (Uniprot ID: Q81VV7, residues 124-289) with a 6*His at its C-terminus was used in this assay. Tetrapeptide, PGLW, was synthesized and tagged with an additional lysine labeled with biotin at its sidechain.
# GID4 competitive binding assays were performed in a 384-well plate at 4° C. in a 20 μL reaction volume. Briefly, 24 nM GID4 (final concentration) proteins were pre-incubated with 48 nM biotinylated degron peptide (final concentration) in an assay buffer containing 20 mM HEPES, pH 7.5, 100 mM NaCl, 1 mM DTT, 0.1% Tween-20, and 0.05% BSA in the presence of the test compound in 2% DMSO (final concentration) at various concentrations for 2 h. 5 ug/ml Streptavidin ALphaScreen donor beads and 5 ug/ml nickel chelate (Ni-NTA) ALphaScreen acceptor beads (PerkinElmer, 6760619C) (final concentrations) were then added to the mixture. After an incubation of 1 h at 4° C., the fluorescent signals were obtained on the EnVision® 2105 Multilabel Plate Reader (PerkinElmer).
# Raw ALphaScreen data were converted to a percentage of inhibition (relative to DMSO) using the following equations: […]
# For a given test compound concentration X:
# Signal (X)=Signal (GID4 & peptide & compound)−Signal (GID4 & buffer & compound)
# Percentage of inhibition at concentration X=[1−Signal(X)/Signal (DMSO)]*100% b)
# The IC50 values were determined by nonlinear regression of plots of [inhibitor] vs. percentage of inhibition with variable slope.
# Table 3 summarizes the inhibition of binding between GID4 and degron peptide with compounds of the present disclosure. Compounds were ranked into bins as follows for IC50: A indicates <500 nM; B indicates 500 nM-5000 nM; C indicates >5000 nM.
row,IC50 [µM],SMILES
1,> 5,"Nc1nc2c(c(N3CCCC(c4cnc5ccccn45)C3)n1)CCCN2 (stereo not shown) [Compound 88, 4-(3-(imidazo[1,2-a]pyridin-3-yl)piperidin-1-yl)-5,6,7,8-tetrahydropyrido[2,3-d]pyrimidin-2-amine]"
2,> 5,"Cc1cc(N2CCCC(c3ccn[nH]3)C2)nc(N)n1 (stereo not shown) [Compound 209, 4-(3-(1H-pyrazol-5-yl)piperidin-1-yl)-6-methylpyrimidin-2-amine]"
3,> 5,"Nc1nc(N2CCCC(c3ccn[nH]3)C2)c2ccccc2n1 (stereo not shown) [Compound 213, 4-(3-(1H-pyrazol-5-yl)piperidin-1-yl)quinazolin-2-amine]"
4,< 0.5,"CN(C)CCCNC(=O)c1cc(Cl)c(-c2cc(O)c3ncccc3c2)cc1Cl [Compound 322, 2,5-dichloro-N-(3-(dimethylamino)propyl)-4-(8-hydroxyquinolin-6-yl)benzamide]"
5,0.5 to 5,"CN(C)CCCNC(=O)c1ccc2c(-c3ccc4ccnc(N)c4c3)c[nH]c2c1 [Compound 359, 3-(1-aminoisoquinolin-7-yl)-N-(3-(dimethylamino)propyl)-1H-indole-6-carboxamide]"
6,> 5,"CN1CC(CNC(=O)c2cccc(-c3ccc4ccnc(N)c4c3)c2)C1 [Compound 347, 3-(1-aminoisoquinolin-7-yl)-N-((1-methylazetidin-3-yl)methyl)benzamide]"
7,< 0.5,"CC(C)c1cc(N2CCNC(c3cccc(F)c3Br)C2)nc(N)n1 (stereo not shown) [Compound 169, 4-(3-(2-bromo-3-fluorophenyl)piperazin-1-yl)-6-isopropylpyrimidin-2-amine]"
8,0.5 to 5,"CC(C)c1cc(-c2cc(-c3ccnn3C)c3ccnc(-c4cc[nH]n4)c3n2)cc(N)n1 [Compound 366, 6-isopropyl-4-(4-(1-methyl-1H-pyrazol-5-yl)-8-(1H-pyrazol-3-yl)-1,7-naphthyridin-2-yl)pyridin-2-amine]"
9,0.5 to 5,"CNc1nc(C(C)C)cc(N2CCNC(c3ccccc3Br)C2)n1 (single isomer, unassigned) [Compound 153, R or S-4-(3-(2-bromophenyl)piperazin-1-yl)-6-isopropyl-N-methylpyrimidin-2-amine]"
10,0.5 to 5,"O=C(c1ccc(-c2cc(O)c3ncccc3c2)cc1)N1CCCC1 [Compound 301, (4-(8-hydroxyquinolin-6-yl)phenyl)(pyrrolidin-1-yl)methanone]"
11,< 0.5,"CN(C)CCNC(=O)c1ccc(-c2cc(O)c3ncnc(N)c3c2)cc1 [Compound 267, 4-(4-amino-8-hydroxyquinazolin-6-yl)-N-(2-(dimethylamino)ethyl)benzamide]"
12,< 0.5,"CC(C)c1cc(N2CCNC(c3ccc(F)cc3Br)C2)nc(N)n1 (stereo not shown) [Compound 173, 4-(3-(2-bromo-4-fluorophenyl)piperazin-1-yl)-6-isopropylpyrimidin-2-amine]"
13,0.5 to 5,"Nc1nc(N2CCN[C@@H](c3ccccc3Br)C2)c2[nH]ccc2n1 (racemic) [Compound 43, (S/R)-4-(3-(2-bromophenyl)piperazin-1-yl)-5H-pyrrolo[3,2-d]pyrimidin-2-amine]"
14,> 5,"Nc1nc(N2CCNC(c3ccccc3Br)C2)c2[nH]ccc2n1 (single isomer, unassigned) [Compound 42, (R/S)-4-(3-(2-bromophenyl)piperazin-1-yl)-5H-pyrrolo[3,2-d]pyrimidin-2-amine]"
15,> 5,"CC(C)c1cc(N2CCn3cncc3C2)nc(N)n1 [Compound 182, 4-(5,6-dihydroimidazo[1,5-a]pyrazin-7(8H)-yl)-6-isopropylpyrimidin-2-amine]"
16,< 0.5,"CN(C)CCCNC(=O)c1ncc(-c2cc(O)c3ncccc3c2)s1 [Compound 272, N-(3-(dimethylamino)propyl)-5-(8-hydroxyquinolin-6-yl)thiazole-2-carboxamide]"

row,IC50 [µM],SMILES
1,> 5,"CC(C)c1cc(N2CCOC(c3ccccc3Br)C2)nc(N)n1 (racemic) [Compound 158, (R/S)-4-(2-(2-bromophenyl)morpholino)-6-isopropylpyrimidin-2-amine]"
2,0.5 to 5,"Cc1cc(-c2cc(O)c3ncccc3c2)ccc1C(=O)NCCCN(C)C [Compound 311, N-(3-(dimethylamino)propyl)-4-(8-hydroxyquinolin-6-yl)-2-methylbenzamide]"
3,< 0.5,"CCOc1ccc(Br)c(C2CN(c3cc(N)nc(N)n3)CCN2)c1 (single isomer, unassigned) [Compound 24, (S/R)-6-(3-(2-bromo-5-ethoxyphenyl)piperazin-1-yl)pyrimidine-2,4-diamine]"
4,0.5 to 5,"Cc1cc(C(=O)NCCCN(C)C)ccc1-c1cc(O)c2ncccc2c1 [Compound 320, N-(3-(dimethylamino)propyl)-4-(8-hydroxyquinolin-6-yl)-3-methylbenzamide]"
5,0.5 to 5,"Cc1c(-c2ccc(C(=O)NCCCN(C)C)cc2)cc(O)c2ncccc12 [Compound 319, N-(3-(dimethylamino)propyl)-4-(8-hydroxy-5-methylquinolin-6-yl)benzamide]"
6,0.5 to 5,"CCCNC(=O)c1ccc(-c2cc(O)c3ncccc3c2)cc1 [Compound 302, 4-(8-hydroxyquinolin-6-yl)-N-propylbenzamide]"
7,< 0.5,"CN1CCC(CNC(=O)c2ccc(-c3cc(O)c4ncccc4c3)cc2)CC1 [Compound 300, 4-(8-hydroxyquinolin-6-yl)-N-((1-methylpiperidin-4-yl)methyl)benzamide]"
8,> 5,"CC(C)c1cc(N2CCCC(c3cnc4ccccn34)C2)ncn1 (single isomer, unassigned) [Compound 149, (S/R)-3-(1-(6-isopropylpyrimidin-4-yl)piperidin-3-yl)imidazo[1,2-a]pyridine]"
9,0.5 to 5,"CC(C)c1cc(N2CC[C@H](O)[C@@H](c3ccccc3Br)C2)nc(N)n1 (relative stereo) [Compound 223, (3,4-trans)-1-(2-amino-6-isopropylpyrimidin-4-yl)-3-(2-bromophenyl)piperidin-4-ol]"
10,0.5 to 5,"CNc1cc(N2CCC[C@@H](c3ccccc3Br)C2)nc(NC)n1 (stereo in doubt) [Compound 84, (S/R)-6-(3-(2-bromophenyl)piperidin-1-yl)-N2,N4-dimethylpyrimidine-2,4-diamine]"
11,< 0.5,"Nc1cc(N2CCN[C@@H](c3cc(C(F)(F)F)ccc3Br)C2)nc(N)n1 (racemic) [Compound 12, (S/R)-6-(3-(2-bromo-5-(trifluoromethyl)phenyl)piperazin-1-yl)pyrimidine-2,4-diamine]"
12,> 5,"CC(C)c1cc(N2CCOC(c3cnc4ccccn34)C2)nc(N)n1 (racemic) [Compound 156, (R/S)-4-(2-(imidazo[1,2-a]pyridin-3-yl)morpholino)-6-isopropylpyrimidin-2-amine]"
13,> 5,"CNc1cc(N2CCNC(c3ccccc3)C2)nc(N)n1 (single isomer, unassigned) [Compound 128, (R/S)-N4-methyl-6-(3-phenylpiperazin-1-yl)pyrimidine-2,4-diamine]"
14,0.5 to 5,"CN1CCN(C(=O)c2ccc(Br)c([C@H]3CN(c4cc(N)nc(N)n4)CCN3)c2)CC1 (racemic) [Compound 16, (S/R)-(4-bromo-3-(4-(2,6-diaminopyrimidin-4-yl)piperazin-2-yl)phenyl)(4-methylpiperazin-1-yl)methanone]"
15,< 0.5,"CNc1cc(N2CCN(C)[C@@H](c3ccccc3Br)C2)nc(N)n1 (stereo in doubt) [Compound 155, (S/R)-6-(3-(2-bromophenyl)-4-methylpiperazin-1-yl)-N4-methylpyrimidine-2,4-diamine]"
